The results in this text go back to patent publication CN110590914A, “一种抑制和消除幽门螺杆菌生物膜生成的蜂蜜和多肽组合物” (Anhui University of Science and Technology, priority 2019, dated 2019).

The subject of the assay is 幽门螺杆菌SS1菌株. Nature of the assay: Inhibition of Helicobacter pylori biofilm formation (crystal violet staining, A595). Type of assay: cell-based. Conditions: peptide 5, 10, 20, 40, 80μg/mL (Fig. 1).

Ends that are not written are not given here.

For KRIVQRIKDIKP [实施例4], the “Concentration dependence of inhibition of biofilm formation” value is recorded as “随着多肽的浓度增大，对生物膜生成的抑制率不断增加”.
